Where two headings read alike, the source gives them in different places.
What was measured:
[1] = tested on: Boophilus microplus; test: Boophilus microplus injection test; format: in vivo; settings: 20 μg/animal injected into engorged adult female cattle ticks; assessed after 7 days by laying of fertile eggs
Experimental: Boophilus microplus—Injection Test
(§1) Solvent: dimethyl sulphoxide
To produce an appropriate active ingredient formulation, 10 mg of active ingredient are mixed with 0.5 ml of solvent and the concentrate is diluted with solvent to the desired concentration.
1 μl of the active ingredient solution is injected into the abdomen of 5 engorged adult female cattle ticks (Boophilus microplus). The animals are transferred into dishes and kept in a climate-controlled room.
Efficacy is assessed after 7 days by laying of fertile eggs. Eggs which are not visibly fertile are stored in a climate-controlled cabinet for about another 42 days until the larvae hatch. An efficacy of 100% means that none of the ticks has laid any fertile eggs; 0% means that all the eggs are fertile.

[2] = tested on: Meloidogyne incognita; test: Meloidogyne incognita test (MELGIN); format: in vivo; settings: 20 ppm; lettuce; after 14 days
Experimental: Meloidogyne incognita Test (MELGIN) Solvent: 125.0 parts by weight of acetone To produce a suitable active ingredient formulation, 1 part by weight of active ingredient is mixed with the stated amount of solvent and the concentrate is diluted with water to the desired concentration. Vessels are filled with sand, active ingredient solution, an egg/larvae suspension of the southern root-knot nematode (Meloidogyne incognita) and lettuce seeds. The lettuce seeds germinate and the plants develop. The galls develop on the roots. After 14 days, the nematicidal efficacy in % is determined by the formation of galls. 100% means that no galls were found; 0% means that the number of galls on the treated plants corresponds to the untreated control.

[3] = Determination of log P values by HPLC (reversed-phase C18); format: physicochemical; settings: for chromatographic logP: reversed-phase C18 HPLC column
Experimental: 1) Description of Method for Determination of the Log P Values ([…]) The log P values given in the table were determined in accordance with EEC Directive 79/831 Annex V.A8 by HPLC (High Performance Liquid Chromatography) using a reversed-phase column (C 18). Temperature: 55° C. […] Gradient: from 10% eluent A/90% eluent B to 95% eluent A/5% eluent B in 4.25 min. Calibration was effected with unbranched alkan-2-ones (having 3 to 16 carbon atoms) with known log P values (log P values determined on the basis of the retention times by linear interpolation between two successive alkanones). The lambda max values were determined in the maxima of the chromatographic signals using the UV spectra from 200 nm to 400 nm.

[4] = tested on: Lucilia cuprina; test: Lucilia cuprina test; format: in vivo; settings: 100 ppm; L1 larvae; after 2 days
Experimental: Lucilia cuprina Test Solvent: dimethyl sulphoxide To produce an appropriate active ingredient formulation, 10 mg of active ingredient are mixed with 0.5 ml of dimethyl sulphoxide, and the concentrate is diluted with water to the desired concentration. About 20 L1 larvae of the Australian sheep blowfly (Lucilia cuprina) are transferred into a test vessel containing minced horsemeat and the active ingredient preparation of the desired concentration. After 2 days, the kill in % is determined 100% means that all the larvae have been killed; 0% means that no larvae have been killed.

[5] = tested on: Musca domestica; test: Musca domestica test; format: in vivo; settings: 100 ppm; adult houseflies; after 2 days
Experimental: Musca domestica Test Solvent: dimethyl sulphoxide To produce an appropriate active ingredient formulation, 10 mg of active ingredient are mixed with 0.5 ml of dimethyl sulphoxide, and the concentrate is diluted with water to the desired concentration. Vessels containing a sponge treated with sugar solution and the active ingredient formulation of the desired concentration are populated with 10 adult houseflies (Musca domestica). After 2 days, the kill in % is determined 100% means that all of the flies have been killed; 0% means that none of the flies have been killed.

[6] = tested on: Phaedon cochleariae; test: Phaedon cochleariae spray test (PHAECO); format: in vivo; settings: 500 g/ha; Chinese cabbage leaf discs, larvae; after 7 days
Experimental: Phaedon cochleariae—Spray Test (PHAECO)
Solvent: 78.0 parts by weight of acetone • • 1.5 parts by weight of dimethylformamide
Emulsifier: alkylaryl polyglycol ether
To produce an appropriate active ingredient formulation, 1 part by weight of active ingredient is dissolved using the stated parts by weight of solvent and made up with water containing an emulsifier concentration of 1000 ppm until the desired concentration is attained. To produce further test concentrations, the preparation is diluted with emulsifier-containing water.
Discs of Chinese cabbage leaves (Brassica pekinensis) are sprayed with an active ingredient formulation of the desired concentration and, after drying, populated with larvae of the mustard beetle (Phaedon cochleariae).
After 7 days, the efficacy in % is determined 100% means that all the beetle larvae have been killed; 0% means that no beetle larvae have been killed.

[7] = tested on: Cooperia curticei; test: Cooperia curticei test; format: in vivo; settings: 20 ppm; nematode larvae; after 5 days
Experimental: as §1
To produce an appropriate active ingredient formulation, 10 mg of active ingredient are mixed with 0.5 ml of dimethyl sulphoxide and the concentrate is diluted with “Ringer's solution” to the desired concentration.
Vessels containing the active ingredient formulation of the desired concentration are populated with about 40 nematode larvae (Cooperia curticei).
After 5 days, the kill in % is determined 100% means that all the larvae have been killed; 0% means that none of the larvae have been killed.

[8] = tested on: Haemonchus contortus; test: Haemonchus contortus test; format: in vivo; settings: 20 ppm; larvae; after 5 days
Experimental: Haemonchus contortus Test Solvent: dimethyl sulphoxide To produce an appropriate active ingredient formulation, 10 mg of active ingredient are mixed with 0.5 ml of dimethyl sulphoxide and the concentrate is diluted with “Ringer's solution” to the desired concentration. Vessels containing the active ingredient formulation of the desired concentration are populated with about 40 larvae of the red stomach worm (Haemonchus contortus). After 5 days, the kill in % is determined 100% means that all the larvae have been killed; 0% means that none of the larvae have been killed.

[9] = HPLC, reversed-phase C18, 55° C., final compounds table
[10] = pH 3.4, HPLC-MS, preparation examples, read-out: log P
[11] = HPLC, reversed-phase C18, 55° C., final compounds table, read-out: log P neutral
[12] = HPLC-MS, preparation examples, read-out: log P (neutral)

Structure (SMILES): O=C(Nc1ncn(-c2ccccc2OC(F)(F)F)n1)c1ccccc1C(F)(F)F [Compound I-1-10]
- efficacy [1]: 100%
- nematicidal efficacy (formation of galls) [2]: 100%
- log P neutral [3, 9]: 2.51

Structure (SMILES): O=C(Nc1ncn(-c2c(F)cccc2F)n1)c1ccccc1C(F)(F)F [Compound I-1-11, 2-Trifluoromethyl-N-[1-(2,6-difluorophenyl)-1H-1,2,4-triazol-3-yl]benzamide]
- efficacy [1]: 100%
- efficacy (kill) [4]: 100%
- efficacy (kill) [5]: 80%
- nematicidal efficacy (formation of galls) [2]: 90%
- chromatographic logP [3, 10]: 1.97
- chromatographic logP [3, 11]: 1.97

Structure (SMILES): O=C(Nc1ncn(-c2c(F)cccc2F)n1)c1ccccc1C(F)F [Compound I-1-18]
- efficacy [1]: 80%
- nematicidal efficacy (formation of galls) [2]: 100%
- efficacy [6]: 83%
- log P neutral [3, 9]: 1.92

Structure (SMILES): O=C(Nc1ncn(-c2c(F)cccc2F)n1)c1c(F)cccc1C(F)(F)F [Compound I-1-20]
- efficacy (kill) [7]: 100%
- nematicidal efficacy (formation of galls) [2]: 100%
- log P neutral [3, 9]: 2.04

Structure (SMILES): O=C(Nc1ncn(-c2c(F)cccc2F)n1)c1ccccc1I [Compound I-1-21]
- efficacy (kill) [7]: 100%
- efficacy (kill) [8]: 80%
- nematicidal efficacy (formation of galls) [2]: 100%
- log P neutral [3, 9]: 1.89

Structure (SMILES): O=C(Nc1ncn(-c2c(F)cccc2F)n1)c1nccnc1C(F)(F)F [Compound I-1-24]
- efficacy [1]: 100%
- efficacy (kill) [4]: 100%
- efficacy (kill) [5]: 80%
- nematicidal efficacy (formation of galls) [2]: 100%
- log P neutral [3, 9]: 1.73

Structure (SMILES): O=C(Nc1ncn(-c2c(F)cccc2C(F)(F)F)n1)c1ccccc1C(F)(F)F [Compound I-1-26]
- efficacy (kill) [7]: 90%
- nematicidal efficacy (formation of galls) [2]: 100%
- log P neutral [3, 9]: 2.25

Structure (SMILES): O=C(Nc1ncn(-c2c(F)cccc2C(F)(F)F)n1)c1ccccc1I [Compound I-1-28, N-{1-[2-Fluoro-6-(trifluoromethyl)phenyl]-1H-1,2,4-triazol-3-yl}-2-iodobenzamide]
- efficacy (kill) [7]: 80%
- nematicidal efficacy (formation of galls) [2]: 100%
- chromatographic logP [3, 12]: 2.21

Structure (SMILES): O=C(Nc1ncn(-c2c(F)cccc2Br)n1)c1ccccc1C(F)(F)F [Compound I-1-30, 2-Trifluoromethyl-N-[1-(2-bromo-6-fluorophenyl)-1H-1,2,4-triazol-3-yl]benzamide]
- efficacy [1]: 100%
- efficacy (kill) [7]: 80%
- nematicidal efficacy (formation of galls) [2]: 100%
- chromatographic logP [3, 12]: 2.15

Structure (SMILES): O=C(Nc1ncn(-c2c(F)cccc2Cl)n1)c1ccccc1C(F)(F)F [Compound I-1-33]
- efficacy [1]: 100%
- efficacy (kill) [7]: 100%
- nematicidal efficacy (formation of galls) [2]: 100%
- efficacy [6]: 100%
- log P neutral [3, 9]: 2.10

Structure (SMILES): O=C(Nc1ncn(-c2c(Cl)cccc2Cl)n1)c1ccccc1C(F)(F)F [Compound I-1-44]
- efficacy [1]: 90%
- nematicidal efficacy (formation of galls) [2]: 100%
- log P neutral [3, 9]: 2.26

Structure (SMILES): O=C(Nc1ncn(-c2c(F)ccc(F)c2F)n1)c1ccccc1C(F)(F)F [Compound I-1-57]
- efficacy [1]: 90%
- efficacy (kill) [7]: 100%
- nematicidal efficacy (formation of galls) [2]: 100%
- log P neutral [3, 9]: 2.10

Structure (SMILES): O=C(Nc1ncn(-c2c(F)ccc(F)c2F)n1)c1ccccc1I [Compound I-1-59]
- efficacy [1]: 100%
- efficacy (kill) [7]: 90%
- nematicidal efficacy (formation of galls) [2]: 100%
- log P neutral [3, 9]: 2.03

Structure (SMILES): O=C(Nc1ncn(-c2c(F)cc(F)cc2F)n1)c1ccccc1C(F)(F)F [Compound I-1-61]
- efficacy (kill) [7]: 80%
- nematicidal efficacy (formation of galls) [2]: 100%
- log P neutral [3, 9]: 2.05

Structure (SMILES): O=C(Nc1ncn(-c2c(F)cc(F)cc2F)n1)c1ccccc1I [Compound I-1-63]
- efficacy (kill) [7]: 100%
- nematicidal efficacy (formation of galls) [2]: 100%
- log P neutral [3, 9]: 2.00

Structure (SMILES): O=C(Nc1ncn(-c2c(F)c(F)c(F)c(F)c2F)n1)c1ccccc1C(F)(F)F [Compound I-1-65]
- efficacy [1]: 100%
- log P neutral [3, 9]: 2.49

Structure (SMILES): O=C(Nc1ncn(-c2ccccc2Br)n1)c1ccccc1C(F)(F)F [Compound I-1-70]
- efficacy (kill) [7]: 80%
- nematicidal efficacy (formation of galls) [2]: 90%
- log P neutral [3, 9]: 2.15

Structure (SMILES): O=C(Nc1ncn(-c2c(F)cccc2I)n1)c1ccccc1C(F)(F)F [Compound I-1-83]
- efficacy (kill) [7]: 80%
- nematicidal efficacy (formation of galls) [2]: 100%
- log P neutral [3, 9]: 2.21

Structure (SMILES): O=C(Nc1ncn(-c2c(F)cccc2I)n1)c1ccccc1I [Compound I-1-85]
- efficacy (kill) [7]: 80%
- nematicidal efficacy (formation of galls) [2]: 100%
- log P neutral [3, 9]: 2.15

Structure (SMILES): O=C(Nc1ncn(-c2c(F)cccc2F)n1)c1ncccc1C(F)(F)F [Compound I-1-91]
- nematicidal efficacy (formation of galls) [2]: 100%
- efficacy [6]: 100%
- log P neutral [3, 9]: 1.82

Structure (SMILES): O=C(Nc1ncn(-c2c(F)c(F)cc(F)c2F)n1)c1ccccc1Cl [Compound I-1-92]
- nematicidal efficacy (formation of galls) [2]: 90%
- log P neutral [3, 9]: 2.04

Structure (SMILES): O=C(Nc1ncn(-c2c(F)c(F)cc(F)c2F)n1)c1ccccc1C(F)(F)F [Compound I-1-93]
- nematicidal efficacy (formation of galls) [2]: 100%
- log P neutral [3, 9]: 2.23

Structure (SMILES): O=C(Nc1nnn(-c2ccccc2)n1)c1ccccc1C(F)(F)F [Compound I-2-3, N-(2-Phenyl-2H-tetrazol-5-yl)-2-(trifluoromethyl)benzamide]
- efficacy [6]: 100%
- chromatographic logP [3, 10]: 2.57
- chromatographic logP [3, 11]: 2.57

— patent US9920017B2, “Heterocyclic compounds as pesticides” (BAYER CROPSCIENCE AKTIENGESELLSCHAFT, priority 2014, dated 2018)
